From PubChem BioAssay (NCI)
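Following 48 hours of exposure in 96-well plates, responses at five concentrations were used to interpolate endpoints linearly. TGI: concentration producing complete growth inhibition.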

How the values were obtained:
Assay in all cases: NCI tumour cell line growth inhibition, 48 h
RPMI-8226 leukemia = system: RPMI-8226 leukemia
M14 melanoma = system: M14 melanoma
NCI-H460 lung = system: NCI-H460 lung
HOP-62 NSCLC = system: HOP-62 NSCLC
MDA-N = system: MDA-N
SF-539 CNS = system: SF-539 CNS
MALME-3M melanoma = system: MALME-3M melanoma
HT29 colon = system: HT29 colon
NCI-H23 lung = system: NCI-H23 lung
HL-60(TB) leukemia = system: HL-60(TB) leukemia
HCT-15 colon = system: HCT-15 colon

| Structure (SMILES) | TGI (RPMI-8226 leukemia) | TGI (M14 melanoma) | TGI (NCI-H460 lung) | TGI (HOP-62 NSCLC) | TGI (MDA-N) | TGI (SF-539 CNS) | TGI (MALME-3M melanoma) | TGI (HT29 colon) | TGI (NCI-H23 lung) | TGI (HL-60(TB) leukemia) | TGI (HCT-15 colon) |
| --- | --- | --- | --- | --- | --- | --- | --- | --- | --- | --- | --- |
| CN1CN(c2ccccc2)C2(CCNCC2)C1=O | > 100 µM | > 100 µM | > 100 µM | > 100 µM | > 100 µM | > 100 µM | > 100 µM | > 100 µM | > 100 µM | > 100 µM | > 100 µM |
| COc1cc2c(cc1C)NC(=O)/C2=C/c1c(Cl)[nH]c2cc(C)c(OC)cc12 | > 48.9 µM | 13.7 µM | 5.71 µM | 23.2 µM | 8.93 µM | 1.33 µM | 25.4 µM | 17.6 µM | 11.6 µM | 3.39 µM | 17.5 µM |
| CN(Cc1cnc2nc(N)nc(N)c2n1)c1ccc(C(=O)NC(CCS(=O)(=O)O)C(=O)O)cc1 (stereo unspecified) | > 100 µM | > 100 µM | > 31.6 µM | > 100 µM | > 100 µM | > 100 µM | > 100 µM | > 100 µM | > 100 µM | 1.62 µM | > 100 µM |
| OC(c1cc(C(O)(C(F)(F)F)C(F)(F)F)ncn1)(C(F)(F)F)C(F)(F)F | > 10 µM | > 10 µM | > 10 µM | > 10 µM | > 10 µM | > 10 µM | > 10 µM | > 10 µM | > 10 µM | > 10 µM | > 10 µM |
| NS(=O)(=O)c1ccc(NNC(=O)c2cccc3c(=O)c4ccccc4[nH]c23)cc1 | > 100 µM | > 100 µM | > 100 µM | > 100 µM | > 100 µM | > 100 µM | > 100 µM | > 100 µM | > 100 µM | > 100 µM | > 100 µM |
| CC(=O)OCC1C(C(C)OC(C)=O)CCC2C1CCC1(C)C(OC(C)=O)CCC21 (stereo unspecified) | 69.9 µM | 31.9 µM | 31.8 µM | 38.5 µM | 37 µM | 32.6 µM | 37 µM | 32.8 µM | 76.1 µM | 52.6 µM | 36.5 µM |
| c1ccc(Cc2cccc3cc(-c4ccc(-c5ccccc5)cc4)[nH]c23)cc1 | > 100 µM | > 100 µM | > 100 µM | > 100 µM | > 100 µM | > 100 µM | 54 µM | > 100 µM | > 100 µM | > 100 µM | > 100 µM |
| Cc1c2c(c(C)c3c[n+](C)ccc13)Oc1ccccc1O2 | 12.7 µM | > 59.7 µM | 16.4 µM | 33.4 µM | 53.5 µM | 22.4 µM | 19.1 µM | 68.2 µM | 40.4 µM | 39.4 µM | > 100 µM |
| CCCCC1Cc2cc(O)ccc2-c2n1c1cc(O)ccc1[n+]2C (stereo unspecified) (tested in a mixture with another compound) | 75.1 µM | > 100 µM | > 100 µM | > 100 µM | > 100 µM | > 100 µM | 73.4 µM | > 100 µM | > 76.2 µM | > 86.4 µM | > 88.3 µM |
| COc1ccc(-c2cc(-c3ccccc3)n(C3OC(COC(C)=O)C(OC(C)=O)C(OC(C)=O)C3OC(C)=O)c(=S)c2C#N)cc1 (stereo unspecified) | 16.7 µM | 20.5 µM | 22.2 µM | 14.4 µM | 25.5 µM | 14.4 µM | 23.2 µM | 18.7 µM | 47.7 µM | 13.4 µM | > 100 µM |
| CCOC(=O)c1ccc(N=C2SC(=S)N(c3ccc(F)cc3)C2=Nc2ccc(C(=O)OCC)cc2)cc1 | 51.3 µM | 25.6 µM | > 100 µM | > 89 µM | 35.4 µM | 42.7 µM | 36.6 µM | 51.6 µM | 44.2 µM | 22.3 µM | 21.4 µM |
| CCN(CC)CC(O)c1ccc2ccc3ccccc3c2c1 (stereo unspecified) | 38.2 µM | 30.9 µM | 32.7 µM | 29.6 µM | 31 µM | 25.8 µM | 34 µM | 25.2 µM | 37 µM | 30.1 µM | 33.2 µM |
| CCN(CC)CCn1ncc2ccc3c(c(=O)c4cccnc4n3CCN(CC)CC)c21 | 4.21 µM | 2.79 µM | 2.45 µM | 3.38 µM | 2.15 µM | 1.95 µM | 3.32 µM | 3.13 µM | 3.05 µM | 2.83 µM | 6 µM |
| CCOC(=O)C(Cc1ccc2c(c1)CCC2)(Cc1ccc2c(c1)CCC2)C(=O)OCC | > 100 µM | > 100 µM | > 100 µM | > 100 µM | > 100 µM | > 100 µM | 89.2 µM | > 100 µM | > 100 µM | > 100 µM | > 100 µM |
| Cc1csc2c(P(=O)(OC(C)C)OC(C)C)c(-c3ccccc3)cn12 | 40.7 µM | 34.7 µM | 30.1 µM | 33.1 µM | 32.5 µM | 32.9 µM | 36.1 µM | 29.2 µM | 37.9 µM | 45.9 µM | 31.6 µM |
| NS(=O)(=O)c1nnc(NC(=O)CCC(=O)O)s1 | > 100 µM | > 100 µM | > 100 µM | > 100 µM | > 100 µM | > 100 µM | > 100 µM | > 100 µM | > 100 µM | > 100 µM | > 100 µM |

| Structure (SMILES) | TGI (RPMI-8226 leukemia) | TGI (M14 melanoma) | TGI (NCI-H460 lung) | TGI (HOP-62 NSCLC) | TGI (MDA-N) | TGI (SF-539 CNS) | TGI (MALME-3M melanoma) | TGI (HT29 colon) | TGI (NCI-H23 lung) | TGI (HL-60(TB) leukemia) | TGI (HCT-15 colon) |
| --- | --- | --- | --- | --- | --- | --- | --- | --- | --- | --- | --- |
| Cc1ccnc(NS(=O)(=O)c2ccc(NC(=O)c3ccc4nc5ccccc5c(Nc5ccc(S(=O)(=O)Nc6nccc(C)n6)cc5)c4c3)cc2)n1 | > 100 µM | > 100 µM | > 100 µM | > 100 µM | > 100 µM | > 100 µM | > 100 µM | > 100 µM | > 100 µM | > 100 µM | > 100 µM |
| COc1cc(Cn2c3c(c4c(CN(C)C)c(O)ccc42)C(=O)c2ccccc2C3=O)cc(OC)c1 | 41.5 µM | 32.6 µM | 32.3 µM | 30.9 µM | 31.6 µM | 29.8 µM | 76.2 µM | > 100 µM | 29.1 µM | > 100 µM | 28.2 µM |
| C=C1c2nc3ccccc3n2C=C(c2ccc(Cl)cc2)N1c1ccc(OCCN2CCOCC2)cc1 | 10.9 µM | 58.8 µM | > 100 µM | > 100 µM | > 100 µM | > 100 µM | > 100 µM | > 100 µM | > 100 µM | 35 µM | > 100 µM |
| COc1cc(/C=C2\C(=O)N(c3cccc(Cl)c3)C(c3ccccc3)S2(=O)=O)cc(OC)c1OC (stereo unspecified) | 80.1 µM | > 100 µM | > 100 µM | > 100 µM | 46.6 µM | > 100 µM | > 100 µM | > 100 µM | > 100 µM | > 100 µM | > 100 µM |
| CC1=C(C)C(=O)OC(C(C)(O)C2(O)CCC3(O)C4CC(Cl)C5(O)C(O)C=CC(=O)C5(C)C4CCC32C)C1 (stereo unspecified) | 47.3 µM | > 100 µM | > 100 µM | > 100 µM | > 100 µM | > 100 µM | > 100 µM | > 100 µM | > 100 µM | 9.04 µM | > 100 µM |
| O=C(N/N=C(/COc1cccc(Cl)c1)N=Cc1ccncc1)c1ccncc1 | > 100 µM | > 100 µM | > 100 µM | > 100 µM | > 100 µM | > 100 µM | > 100 µM | > 100 µM | > 100 µM | > 100 µM | > 100 µM |
| Oc1c(C(O)(c2ccccc2)c2ccc3ccccc3c2O)ccc2ccccc12 | 5.32 µM | 31 µM | 22.3 µM | 35.6 µM | 28.5 µM | 36.1 µM | 26.4 µM | 33 µM | 23.1 µM | 13.9 µM | 25.9 µM |
| CCOC(=O)/C(C(=S)NC)=C(/N)N1CCCC1 | > 100 µM | > 100 µM | > 100 µM | > 100 µM | > 100 µM | > 100 µM | > 100 µM | > 100 µM | > 100 µM | > 100 µM | > 100 µM |
| CCN(CC)CCN1c2ccccc2Sc2ccc3ccccc3c21 | 10.7 µM | 8.52 µM | 6.42 µM | 29 µM | 25.3 µM | 29.7 µM | 32.5 µM | 12.3 µM | 31.9 µM | 15.1 µM | 22.1 µM |
| CC(C)(C)OC(=O)N1C(C2=COc3ccccc3O2)=COc2ccccc21 | 43.5 µM | > 100 µM | > 100 µM | 45.3 µM | > 100 µM | 41.2 µM | 58.1 µM | > 100 µM | 95.1 µM | 45.5 µM | > 100 µM |
| CCOC(=O)C(SCCO)C(C(=O)OCC)n1ccc(N)nc1=O (stereo unspecified) | > 100 µM | > 100 µM | > 100 µM | > 100 µM | > 100 µM | > 100 µM | > 100 µM | > 100 µM | > 100 µM | > 100 µM | > 100 µM |
| O=[N+]([O-])c1cc2n[nH]nc2c2nonc12 | > 100 µM | 47.4 µM | > 100 µM | > 100 µM | 80.5 µM | 56 µM | > 100 µM | > 100 µM | 83.3 µM | 61.3 µM | > 100 µM |
| O=C1C(NS(=O)(=O)c2ccccc2)=C(n2cnc3ccccc32)C(=O)c2ccccc21 | > 100 µM | > 100 µM | > 100 µM | > 100 µM | > 100 µM | > 100 µM | > 100 µM | > 100 µM | > 100 µM | > 100 µM | > 100 µM |
| C=CCCCCOC1C=CC(OC(C)=O)C(COC(C)=O)O1 (stereo unspecified) | > 100 µM | > 100 µM | > 100 µM | > 100 µM | > 100 µM | > 100 µM | > 100 µM | > 100 µM | > 100 µM | > 100 µM | > 100 µM |
| CCCCCCCCCc1cc(O)c(O)cc1CCCCCCCCC | > 10 µM | > 10 µM | > 10 µM | > 10 µM | > 10 µM | > 10 µM | > 10 µM | > 10 µM | > 10 µM | > 10 µM | > 10 µM |
